Assay results as given in patent US6716858B1, “Methods for inhibiting diabetic complications” (Kansas University Medical Center, priority 1995, dated 2004).

Legend:
[1] = test system: post-Amadori AGE formation, RNase Amadori intermediate; assay: Interrupted (post-Amadori) ribose glycation assay, RNase; assay type: biochemical, bovine; conditions: RNase
Experimental: (§1) ELISA detection of AGE products. The general method of Engvall (1981, Methods Enzymol. 70:419-439) was used to perform the ELISA. Typically, glycated protein samples were diluted to approximately 1.5 ug/ml in 0.1 M sodium carbonate buffer of pH 9.5 to 9.7. The protein was coated overnight at room temperature onto 96-well polystyrene plates by pippetting 200 ul of the protein solution in each well (0.3 ug/well). After coating, the protein was washed from the wells with a saline solution containing 0.05% Tween-20. The wells were then blocked with 200 ul of 1% casein in carbonate buffer for 2 h at 37° C. followed by washing. Rabbit anti-AGE antibodies were diluted at a titer of about 1:350 in incubation buffer, and incubated for 1 h at 37° C., followed by washing. In order to minimize background readings, antibodies R479 used to detect glycated RNase were raised against glycated BSA, and antibodies R618 used to detect glycated BSA and glycated Hb were raised against glycated RNase. An alkaline phosphatase-conjugated antibody to rabbit IgG was then added as the secondary antibody at a titer of 1:2000 or 1:2500 (depending on lot) and incubated for 1 h at 37° C., followed by washing. The p-nitrophenylphosphate substrate solution was then added (200 ul/well) to the plates, with the absorbance of the released p-nitrophenolate being monitored at 410 nm with a Dynatech MR 4000 microplate reader.
Glycation Modifications Modification with ribose or glucose was generally done at 37° C. in 0.4 M phosphate buffer of pH 7.5 containing 0.02% sodium azide. The high buffer concentration was always used with 0.5 M ribose modifications. The solutions were kept in capped tubes and opened only to remove timed aliquots that were immediately frozen for later carrying out the various analyses. “Interrupted glycation” experiments were carried out by first incubating protein with the ribose at 37° C. for 8 or 24 h, followed by immediate and extensive dialysis against frequent cold buffer changes at 4° C. The samples were then reincubated by quickly warming to 37° C. in the absence of external ribose. Aliquots were taken and frozen at various intervals for later analysis. Due to the low molecular weight of RNase, protein concentrations were remeasured after dialysis even when low molecular weight cut-off dialysis tubing was used. An alternative procedure was also devised (see below) in which interruption was achieved by simple 100-fold dilution from reaction mixtures containing 0.5 M ribose. Protein concentrations were estimated from UV spectra. The difference in molar extinction between the peak (278 nm) and trough (250 nm) was used for RNase concentration determinations in order to compensate for the general increase in UV absorbance that accompanies glycation. Time-dependent UV-difference spectral studies were carried out to characterize the glycation contributions of the UV spectrum. […]
Glycation was first carried out by incubating protein (10 mg/ml) with 0.5 M ribose at 37° C. in 0.4 M phosphate buffer at pH 7.5 containing 0.2% sodium azide for 24 h in the absence of inhibitors. Glycation was then interrupted to remove excess and reversibly bound (Schiff base) sugar by extensive dialysis against frequent cold buffer changes at 4° C.

[2] = test system: AGE formation in human methemoglobin (Hb); assay: Uninterrupted glycation of human methemoglobin with glucose, anti-AGE ELISA; assay type: biochemical; conditions: Hb 1 mg/ml, 1.0 M glucose, 3 weeks; inhibitors 0.5, 3, 15 and 50 mM
Experimental: Uninterrupted Glycation with Glucose Bovine serum albumin, ribonuclease A, and human hemoglobin were incubated with glucose at 37° C. in 0.4 M sodium phosphate buffer of pH 7.5 containing 0.02% sodium azide. The protein, glucose (at 1.0 M), and prospective inhibitors (at 0.5, 3, 15 and 50 mM) were introduced into the incubation mixture simultaneously. Solutions were kept in the dark in capped tubes. Aliquots were taken and immediately frozen until analyzed by ELISA at the conclusion of the reaction. The incubations were for 3 weeks (Hb) or 6 weeks (RNase, BSA).
as §1
(§2) Aliquots were assayed by ELISA using R618 anti-AGE antibodies.
as §2

[3] = 24 h in 0.5 M ribose, then free ribose removed, 37° C.

| SMILES | inhibition of post-Amadori AGE formation [1, 3] | inhibition of post-Amadori AGE formation ([1]; 50 mM inhibitor) | inhibition of antigenic AGE formation (ELISA) [2] |
| --- | --- | --- | --- |
| N=C(N)NN [aminoguanidine, reference compound] | modest effects on blocking the formation of antigenic AGEs in RNase | less than 15% | only inhibited the rate of AGE formation, and not the final levels of AGE formed |
| Cc1ncc(CO)c(CN)c1O [pyridoxamine] | nearly complete inhibition of AGE formation with RNase at 15 mM and 50 mM |  | the most effective inhibitors in each of their respective families |
| Cc1ncc(C[n+]2csc(CCO[P@](=O)(O)OP(=O)(O)O)c2C)c(N)n1 [thiamine pyrophosphate] | inhibited AGE formation more effectively than the other B1 derivatives |  | the most effective inhibitors in each of their respective families |
